We go through 15 compounds from PubChem BioAssay (NCI).

Some test systems named below: UO-31 renal; KM12 colon; SF-539 CNS; CAKI-1 renal; 786-0 renal; OVCAR-8 ovarian; HT29 colon; M14 melanoma; NCI-H460 lung; NCI-H23 lung.
Holding throughout (assay): NCI tumour cell line growth inhibition, 48 h

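Dose response: 5 concentrations. Exposure: 48 h. Format: 96-well plates. Endpoint: linear interpolation; highest concentration if not reached. Abbreviation: GI50, concentration required for 50% inhibition of growth. At the TGI there is no net growth.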

As for `[Au+].c1c[n-]cn1.c1ccc([PH+](c2ccccc2)c2ccccc2)cc1`, the GI50 is 8.36 µM in the assay on UO-31 renal; 14.5 µM with KM12 colon; 4.38 µM with SF-539 CNS; 4.69 µM in the assay with CAKI-1 renal; 1.66 µM with 786-0 renal; 9.28 µM in the assay with OVCAR-8 ovarian. Also, the GI50 was 8 µM in the assay on HT29 colon, 2.34 µM with M14 melanoma, 15.3 µM in the assay on NCI-H460 lung and 5.85 µM in the assay with NCI-H23 lung. Further, the TGI in the assay with UO-31 renal is 19.4 µM; in the assay on KM12 colon, 37.9 µM; with SF-539 CNS, 10.8 µM; in the assay with CAKI-1 renal, 16.4 µM; with 786-0 renal it was 3.04 µM; in the assay with OVCAR-8 ovarian, 37.1 µM. The TGI with HT29 colon turned out to be 24.7 µM; with M14 melanoma, 6.73 µM; in the assay with NCI-H460 lung it was 59.9 µM; in the assay with NCI-H23 lung, 25.1 µM.

Turning to `Cn1cc(-c2ccc3nnc(C(F)(F)c4ccc5ncccc5c4)n3n2)cn1`, the GI50 in the assay with UO-31 renal is 28.4 µM; in the assay with KM12 colon, 43.6 µM; with SF-539 CNS it was 47.5 µM; in the assay with CAKI-1 renal, 31.4 µM; with 786-0 renal it was 46 µM; with OVCAR-8 ovarian, 66.1 µM. The GI50 in the assay on HT29 colon was 63.6 µM; with M14 melanoma it was more than 100 µM; in the assay with NCI-H460 lung, 59.6 µM; with NCI-H23 lung it was 66 µM. Also, the TGI with UO-31 renal, in the assay on KM12 colon, in the assay with SF-539 CNS, with CAKI-1 renal, with 786-0 renal and in the assay on OVCAR-8 ovarian was more than 100 µM throughout. In addition, the TGI in the assay with HT29 colon, with M14 melanoma, in the assay with NCI-H460 lung and in the assay with NCI-H23 lung was more than 100 µM each time.

As for `COc1ccc2c(c1)C(=O)c1c-2c(OCCN2CCCCC2)nc2ccc(OC)cc12`, the GI50 in the assay with UO-31 renal was 0.259 µM; in the assay with KM12 colon, 0.585 µM; in the assay with SF-539 CNS, 0.693 µM; in the assay on CAKI-1 renal it was 0.342 µM; in the assay on 786-0 renal, 1.04 µM; in the assay on OVCAR-8 ovarian, 0.601 µM. Besides, the GI50 was 0.435 µM in the assay on HT29 colon, 0.904 µM with M14 melanoma, 0.286 µM in the assay with NCI-H460 lung and 1.12 µM with NCI-H23 lung. Besides, the TGI in the assay on UO-31 renal stood at 1.67 µM; with KM12 colon, 2.1 µM; with SF-539 CNS it was 12.4 µM; with CAKI-1 renal it was 2.96 µM; in the assay with 786-0 renal, 2.59 µM; with OVCAR-8 ovarian it was 4.67 µM. The TGI stood at 2.7 µM in the assay with HT29 colon, 6.87 µM in the assay on M14 melanoma, 1.1 µM with NCI-H460 lung and 7.68 µM in the assay on NCI-H23 lung.

Take `O=C(O)c1c[nH]c2c(ccc3[nH]cc(C(=O)O)c(=O)c32)c1=O`: the TGI in the assay with UO-31 renal, in the assay with KM12 colon, with SF-539 CNS, in the assay on CAKI-1 renal, in the assay on 786-0 renal and with OVCAR-8 ovarian was more than 100 µM throughout. For the same compound, the TGI in the assay with HT29 colon, in the assay with M14 melanoma, in the assay on NCI-H460 lung and in the assay with NCI-H23 lung was more than 100 µM throughout.

In the case of `C=CCCCC(O)c1ccc(C(O)c2cnc3ccccc3c2)o1` (stereo not given), the GI50 with UO-31 renal is 50.9 µM; in the assay with KM12 colon it was 28.1 µM; in the assay with SF-539 CNS it was 27.9 µM; with CAKI-1 renal, 31.4 µM; with 786-0 renal it was 39.8 µM; in the assay on OVCAR-8 ovarian, 26.7 µM. Besides, the GI50 with HT29 colon was 46.9 µM; with M14 melanoma, 19.6 µM; in the assay on NCI-H460 lung, 26.9 µM; in the assay with NCI-H23 lung, 14.3 µM. For the same compound, the TGI in the assay on UO-31 renal is more than 100 µM; in the assay with KM12 colon, 77.9 µM; in the assay on SF-539 CNS, 82.5 µM; in the assay with CAKI-1 renal it was 98.4 µM; in the assay on 786-0 renal it was more than 100 µM; in the assay with OVCAR-8 ovarian, 72 µM. Besides, the TGI was more than 100 µM in the assay on HT29 colon, 41.3 µM with M14 melanoma, more than 100 µM in the assay with NCI-H460 lung and 49.6 µM in the assay with NCI-H23 lung.

For the compound `N/C(=N/N=C/c1cccc(F)c1)NO`, the TGI in the assay on UO-31 renal was more than 100 µM; in the assay on KM12 colon, more than 100 µM; in the assay with SF-539 CNS, 70 µM; with CAKI-1 renal it was 91.7 µM; in the assay with 786-0 renal, more than 100 µM; with OVCAR-8 ovarian, more than 100 µM. The TGI is more than 100 µM in the assay on HT29 colon, 56 µM in the assay on M14 melanoma, more than 100 µM in the assay on NCI-H460 lung and more than 100 µM in the assay on NCI-H23 lung.

Take `O=[P+](O)c1cccnc1`: the TGI in the assay with UO-31 renal, with KM12 colon, in the assay on SF-539 CNS, in the assay with CAKI-1 renal, with 786-0 renal and in the assay with OVCAR-8 ovarian was more than 100 µM throughout. The TGI with HT29 colon, in the assay with M14 melanoma, in the assay on NCI-H460 lung and in the assay on NCI-H23 lung was more than 100 µM in each case.

Regarding `c1ccc(N2N=NC3C4CC(C5c6ccccc6C45)C32)cc1` (stereo not given), the TGI with UO-31 renal was 72.1 µM; with KM12 colon it was more than 100 µM; in the assay on SF-539 CNS, more than 100 µM; with CAKI-1 renal, more than 100 µM; with 786-0 renal it was more than 100 µM; in the assay on OVCAR-8 ovarian it was more than 100 µM. Besides, the TGI with HT29 colon was 40.3 µM; in the assay with M14 melanoma, more than 100 µM; in the assay on NCI-H460 lung, more than 100 µM; in the assay with NCI-H23 lung, 75.9 µM.

For the compound `C=C(C)C1CCC2(C(=O)O)CCC3(C)C(CCC4C5(C)CCC(O)C(C)(C)C5CCC43C)C12` (stereo not given), the TGI worked out at 24.5 µM in the assay on UO-31 renal; 20.3 µM with KM12 colon; 16.7 µM in the assay on SF-539 CNS; 27.4 µM in the assay on CAKI-1 renal; 25.2 µM with 786-0 renal; 20.7 µM in the assay on OVCAR-8 ovarian. Further, the TGI with HT29 colon is 23.9 µM; in the assay on M14 melanoma, 27.7 µM; in the assay with NCI-H460 lung, 39 µM; with NCI-H23 lung, 12.7 µM.

For `Cc1cc(Cl)ccc1Nc1nc2c(s1)C(=O)c1ccccc1C2=O`, the TGI in the assay with UO-31 renal came out at 11.6 µM; in the assay on KM12 colon, 10.7 µM; in the assay on SF-539 CNS, 16 µM; in the assay on CAKI-1 renal it was 20.3 µM; in the assay with 786-0 renal it was 4.38 µM; in the assay on OVCAR-8 ovarian it was 11.6 µM. Besides, the TGI stood at 54.6 µM in the assay with HT29 colon, 1.99 µM in the assay on M14 melanoma, 9.5 µM with NCI-H460 lung and 3.96 µM in the assay on NCI-H23 lung.

Consider `O=C(c1ccccc1)c1c2n(c3c1cc(O)c1ccccc13)CCN2`, for which the GI50 with UO-31 renal is 16.2 µM; with KM12 colon, 3.08 µM; in the assay with SF-539 CNS, 2.39 µM; with CAKI-1 renal, 11.1 µM; in the assay with 786-0 renal, 9.23 µM; in the assay on OVCAR-8 ovarian, 2.7 µM. In addition, the GI50 with HT29 colon was 3.67 µM; in the assay with M14 melanoma, 7.09 µM; in the assay on NCI-H460 lung, 4.7 µM; in the assay on NCI-H23 lung it was 4.17 µM. Also, the TGI in the assay with UO-31 renal was 31.3 µM; with KM12 colon, 8.88 µM; in the assay with SF-539 CNS, 6.04 µM; in the assay on CAKI-1 renal it was 52.5 µM; with 786-0 renal it was 31.2 µM; with OVCAR-8 ovarian it was 7.67 µM. In addition, the TGI in the assay with HT29 colon was 15.5 µM; in the assay with M14 melanoma, 19.3 µM; with NCI-H460 lung, 15.8 µM; with NCI-H23 lung it was 12 µM.

Turning to `C=CCn1c(=O)c(C(=O)NC(=O)OCC)cn(C2CCCCC2)c1=O`, the TGI with UO-31 renal, in the assay on KM12 colon, with SF-539 CNS, with CAKI-1 renal, with 786-0 renal and in the assay with OVCAR-8 ovarian was more than 100 µM throughout. In addition, the TGI in the assay on HT29 colon, in the assay with M14 melanoma, with NCI-H460 lung and in the assay with NCI-H23 lung was more than 100 µM throughout.

`CCCCCCn1c2c(c3c(O)cccc31)C(=O)c1ccccc1-2`: the GI50 is 16.1 µM with UO-31 renal; 17.6 µM in the assay on KM12 colon; 18 µM in the assay with SF-539 CNS; 26.9 µM with CAKI-1 renal; 17.1 µM in the assay on 786-0 renal; 17.4 µM in the assay with OVCAR-8 ovarian. Moreover, the GI50 is 35.6 µM in the assay with HT29 colon, 15.7 µM in the assay on M14 melanoma, 17.6 µM in the assay on NCI-H460 lung and 18.4 µM with NCI-H23 lung. Besides, the TGI stood at 31.2 µM in the assay with UO-31 renal; 34.4 µM in the assay with KM12 colon; 35.7 µM with SF-539 CNS; 63.8 µM with CAKI-1 renal; 32.4 µM in the assay with 786-0 renal; 36.7 µM in the assay with OVCAR-8 ovarian. Further, the TGI in the assay on HT29 colon is more than 100 µM; in the assay with M14 melanoma, 30.2 µM; in the assay with NCI-H460 lung, 35.8 µM; in the assay with NCI-H23 lung, 34.7 µM.

Take `COc1cccc(/C=C2\CCc3ccccc3C2=O)c1`: the GI50 in the assay with UO-31 renal is 10.9 µM; with KM12 colon it was 6.31 µM; with SF-539 CNS it was 16.4 µM; in the assay on CAKI-1 renal, 11.3 µM; with 786-0 renal, 18.2 µM; with OVCAR-8 ovarian, 12.4 µM. Besides, the GI50 with HT29 colon was 5.89 µM; with M14 melanoma it was 17 µM; in the assay with NCI-H460 lung it was 17 µM; in the assay with NCI-H23 lung, 16.3 µM. For the same compound, the TGI came to 24.3 µM with UO-31 renal; 18.8 µM in the assay with KM12 colon; 36.9 µM with SF-539 CNS; 36.4 µM in the assay on CAKI-1 renal; 39.9 µM in the assay on 786-0 renal; 60.7 µM with OVCAR-8 ovarian. Moreover, the TGI amounted to 19.4 µM in the assay with HT29 colon, 39.6 µM in the assay with M14 melanoma, 35 µM with NCI-H460 lung and 40.1 µM in the assay with NCI-H23 lung.

`CN1c2ccccc2S(=O)(=O)n2c(COc3ccccc3)nnc21`: the TGI in the assay on UO-31 renal, in the assay on KM12 colon, in the assay on SF-539 CNS, in the assay with CAKI-1 renal, in the assay on 786-0 renal and in the assay on OVCAR-8 ovarian was more than 100 µM in each case. The TGI in the assay with HT29 colon, with M14 melanoma, in the assay on NCI-H460 lung and with NCI-H23 lung was more than 100 µM in each case.
